Experimental data published in US20080096894A1, “Anti-Bacterial Compounds” (ASTON UNIVERSITY, priority 2005, published 2008).
Where a name gives a salt, the structure may show the parent alone. Read-outs that look alike come from different tables or passages of the source.

Key:
[1] = test system: Micrococcus luteus; assay: MIC, doubling dilution in 96-well microtitre plate; assay type: cell-based
Procedure: (§1) The compound was tested as follows. […] The wells were inoculated with organism ([…] of medium containing 10^6 cfu/mL) and the plates were incubated at 37° C. overnight. Where growth of organism occurred this was observed as a small button when viewed from underneath the plate. The MIC was determined as the lowest concentration inhibiting growth.

[2] = test system: Moraxella catarrhalis; assay: MIC, doubling dilution in 96-well microtitre plate; assay type: cell-based
Procedure: as §1

[3] = test system: Bacillus megarerium; assay: MIC, doubling dilution in 96-well microtitre plate; assay type: cell-based
Procedure: as §1

[4] = test system: Bacillus cereus; assay: MIC, doubling dilution in 96-well microtitre plate; assay type: cell-based
Procedure: as §1

[5] = test system: Micrococcus roseus; assay: MIC, doubling dilution in 96-well microtitre plate; assay type: cell-based
Procedure: as §1

[6] = test system: Enterococcus faecium; assay: MIC, doubling dilution in 96-well microtitre plate; assay type: cell-based
Procedure: as §1

[7] = test system: Bacillus subtilis; assay: MIC, doubling dilution in 96-well microtitre plate; assay type: cell-based
Procedure: as §1

[8] = test system: E. faecium; assay: MIC, agar dilution, multipoint inoculator; assay type: cell-based, Enterococcus faecium; settings: Enterococcus faecium
In short: (§2)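 Minimum inhibitory concentrations come from an agar dilution method using Mueller Hinton medium. Inocula of 10^4 colony forming units per spot were applied with a multipoint inoculator.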

[9] = test system: E. cloacae; assay: MIC, agar dilution, multipoint inoculator; assay type: cell-based, Enterobacter cloacae; settings: Enterobacter cloacae, NCTC11582, 18 h
Procedure: (§3) This activity was measured using a multipoint inoculator method as follows. The MIC for each compound was measured using an agar dilution method (Onda, H., et al., Int. J. Antimicrob. Agents. 18, 263 (2001)) (Mueller Hinton agar) by means of a multipoint inoculator delivering 10^4 colony forming units per spot.

[10] = test system: P. auriginosa; assay: MIC, agar dilution, multipoint inoculator; assay type: cell-based, Pseudomonas aeruginosa; settings: Pseudomonas aeruginosa, NCTC6749, 18 h
Procedure: as §3

[11] = test system: MRSA; assay: MIC, agar dilution, multipoint inoculator; assay type: cell-based, methicillin-resistant Staphylococcus aureus
In short: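 Agar dilution MIC on Mueller Hinton agar, multipoint inoculator delivering 10^4 colony forming units per spot. MRSA values are ranges across ten clinical MRSA strains; S. aureus NCTC 6571 as reference strain.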

[12] = test system: vancomycin resistant enterococci; assay: MIC, agar dilution, multipoint inoculator; assay type: cell-based
Procedure: as §3
It will be noted that compound 4PYcq was active against all strains of MRSA as well as all other Gram positive bacteria. For this reason it was further tested against some vancomycin resistant enterococci, using the multipoint inoculator method described above. It can be seen from Table 5 that the high level activity was retained.

[13] = test system: K. pneumoniae; assay: MIC, agar dilution, multipoint inoculator; assay type: cell-based, Klebsiella pneumoniae; settings: Klebsiella pneumoniae, 18 h
Procedure: as §3

[14] = test system: S. epidemisis; assay: MIC, agar dilution, multipoint inoculator; assay type: cell-based, Staphylococcus epidermidis; settings: Staphylococcus epidermidis
In short: as §2

[15] = test system: E. coli; assay: MIC, agar dilution, multipoint inoculator; assay type: cell-based, Escherichia coli
Procedure: as §3

[16] = test system: S. marcesens; assay: MIC, agar dilution, multipoint inoculator; assay type: cell-based, Serratia marcescens; settings: Serratia marcescens, 18 h
Procedure: as §3

[17] = test system: S. maltophilia; assay: MIC, agar dilution, multipoint inoculator; assay type: cell-based; settings: Stenotrophomonas maltophilia, NCTC10257, 18 h
In short: as §2

[18] = test system: E. faecalis; assay: MIC, agar dilution, multipoint inoculator; assay type: cell-based; settings: Enterococcus faecalis, upper value of MIC reading
In short: as §2

[19] = test system: S. aboni; assay: MIC, agar dilution, multipoint inoculator; assay type: cell-based; settings: S. aboni NCTC 6017; upper value of MIC reading
In short: as §2

[20] = test system: B. bronchiseptica; assay: MIC, agar dilution, multipoint inoculator; assay type: cell-based; settings: Bordetella bronchiseptica, NCTC8344, 18 h
In short: as §2

[21] = test system: S. haemolyticus; assay: MIC, agar dilution, multipoint inoculator; assay type: cell-based; settings: Staphylococcus haemolyticus, 18 h
In short: as §2

[22] = test system: S. aureus; assay: MIC, agar dilution, multipoint inoculator; assay type: cell-based, Staphylococcus aureus; settings: Staphylococcus aureus
In short: as §2

[23] = test system: E. faecium isolates; settings: against 86% of E. faecium isolates; cited from earlier work
[24] = test system: human mononuclear leucocytes (MNL, white blood cells); settings: rat liver microsomes added; Coleman et al 1999; cited from earlier work
[25] = test system: human mononuclear leucocytes (MNL, white blood cells); assay: direct leucocyte toxicity, tryptan blue exclusion, 18 hours; assay type: cell-based; settings: human, 18 h, 1 mM
Procedure: The in vitro assay used human mononuclear leucocytes (MNL, white blood cells) which were incubated with the test compound for 18 hours and cell death determined by tryptan blue exclusion (tryptan blue is a dye, which stains dead cells, whilst living cells extrude it).
The toxicity of 4PYcq and the aldehyde cq and pyridine-4-carboxamidrazone precursors were assessed using the same in vitro assay with human mononuclear leucocytes as that described above. The toxicity of related compounds, 2-hydroxybenzylidene-pyridine-2-carboxamidrazone 4PYbw and benzylidenepyridine-2-carboxamidrazone 4PYaa were also examined.

[26] = test system: Enterococcus faecalis NCTC 5957; assay: MIC, doubling dilution in 96-well microtitre plate; assay type: cell-based
Procedure: as §1

[27] = test system: Streptococcus bovis NCTC 11436; assay: MIC, doubling dilution in 96-well microtitre plate; assay type: cell-based
Procedure: as §1

[28] = test system: Staphylococcus aureus (MRSA) 96-7475; assay: MIC, doubling dilution in 96-well microtitre plate; assay type: cell-based
Procedure: as §1

[29] = test system: Staphylococcus aureus W11 MRSA; assay: MIC, doubling dilution in 96-well microtitre plate; assay type: cell-based
Procedure: as §1

[30] = test system: Staphylococcus epidermidis NCTC 11047; assay: MIC, doubling dilution in 96-well microtitre plate; assay type: cell-based
Procedure: as §1

[31] = test system: Staphylococcus aureus NCTC 10788; assay: MIC, doubling dilution in 96-well microtitre plate; assay type: cell-based
Procedure: as §1

[32] = test system: Staphylococcus aureus NCTC 6571; assay: MIC, doubling dilution in 96-well microtitre plate; assay type: cell-based
Procedure: as §1

[33] = test system: Bacillus polymyxa; assay: MIC, doubling dilution in 96-well microtitre plate; assay type: cell-based
Procedure: as §1

[34] = Enterococcus faecium ATCC 10541

CC(C)(C)c1ccc(O)c(C=NN=C(N)c2cc[n+]([O-])cc2)c1 [Compound 4PYOfe]
MIC [1]: 8 to 16 µg/mL
MIC [2]: 8 to 16 µg/mL

CC(=O)Nc1ccc(C=NN=C(N)c2cc[n+]([O-])cc2)cc1 [Compound 4PYOfa]
MIC [3]: 16 to 32 µg/mL
MIC [4]: 8 to 16 µg/mL
MIC [5]: 16 to 32 µg/mL
MIC [6, 34]: 16 to 32 µg/mL
MIC [7]: 4 to 8 µg/mL

CN[C@H](CC(C)C)C(=O)N[C@H]1C(=O)N[C@@H](CC(N)=O)C(=O)N[C@H]2C(=O)N[C@H]3C(=O)N[C@H](C(=O)N[C@H](C(=O)O)c4cc(O)cc(O)c4-c4cc3ccc4O)[C@H](O)c3ccc(c(Cl)c3)Oc3cc2cc(c3O[C@@H]2O[C@H](CO)[C@@H](O)[C@H](O)[C@H]2O[C@H]2C[C@](C)(N)[C@H](O)[C@H](C)O2)Oc2ccc(cc2Cl)[C@H]1O [Vanc., Vancomycin hydrochloride, reference compound]
MIC ([8]; 18 h): 0.12 µg/mL
MIC ([8]; NCTC7171, 18 h): 0.12 µg/mL
MIC [9]: > 16 µg/mL
MIC [10]: > 16 µg/mL
MIC ([11]; MRSA Isolate 1, upper value of MIC reading, in µg/mL): 0.12
MIC ([11]; MRSA Isolate 2, upper value of MIC reading, in µg/mL): 0.12
MIC ([11]; MRSA Isolate 3, upper value of MIC reading, in µg/mL): 0.12
MIC ([11]; MRSA Isolate 4, upper value of MIC reading, in µg/mL): 0.12
MIC ([11]; MRSA Isolate 5, upper value of MIC reading, in µg/mL): 0.12
MIC ([11]; MRSA Isolate 6, upper value of MIC reading, in µg/mL): 0.12
MIC ([11]; MRSA Isolate 7, upper value of MIC reading, in µg/mL): 0.12
MIC ([11]; MRSA Isolate 8, upper value of MIC reading, in µg/mL): 0.12
MIC ([11]; MRSA Isolate 9, upper value of MIC reading, in µg/mL): 0.12
MIC ([11]; Staphylococcus aureus, 18 h): 0.12 µg/mL
MIC ([12]; Culture 3001562): 4 to 8 µg/mL
MIC ([12]; Culture 3002043): 4 to 8 µg/mL
MIC ([12]; Culture 3002066): 4 to 8 µg/mL
MIC ([12]; Culture 3005323): > 16 µg/mL
MIC ([12]; Culture 3005426): 4 to 8 µg/mL
MIC ([12]; Culture 3102095): > 16 µg/mL
MIC ([12]; Culture 30053530): > 16 µg/mL
MIC [13]: > 16 µg/mL
MIC ([14]; 18 h): 8 µg/mL
MIC ([14]; NCTC11047, 18 h): 8 µg/mL
MIC ([15]; E. coli W3110R+, upper value of MIC reading): > 16 µg/mL
MIC ([15]; Escherichia coli, 18 h): > 16 µg/mL
MIC [16]: > 16 µg/mL
MIC [17]: > 16 µg/mL
MIC ([18]; 18 h, E. faecalis EBH1): 0.12 µg/mL
MIC ([18]; 18 h, E. faecalis Isolate 1): 0.25 µg/mL
MIC ([18]; 18 h, E. faecalis Isolate 2): 0.25 µg/mL
MIC ([18]; 18 h, E. faecalis Isolate 3): 0.12 µg/mL
MIC ([18]; 18 h, E. faecalis Isolate 4): 16 µg/mL
MIC ([18]; 18 h, E. faecalis Isolate 5): 2 µg/mL
MIC ([18]; NCTC5957, 18 h, E. faecalis NCTC 5957): 0.25 µg/mL
MIC [19]: 0.05 µg/mL
MIC [20]: > 16 µg/mL
MIC [21]: 8 µg/mL
MIC ([22]; 18 h): 0.25 µg/mL
MIC ([22]; NCTC6571, 18 h): 0.05 µg/mL
MIC ([22]; NCTC10788, 18 h): 0.12 µg/mL

quinupristin/dalfopristin
MIC [23]: ≤ 2 µg/mL

N/C(=N\N=C\c1cccc2ccccc12)c1ccccn1 [Compound 2PYal]
MIC ([11]; Staphylococcus aureus, MRSA, 18 h, panel of ten MRSA strains (clinical isolates), read-out: MRSA MIC range): > 256 µg/mL
cytotoxicity in the presence of the metabolising system (in words) [24]: marked reduction in cytotoxicity
% Leucocyte Death [25]: 17.1 ± 4.9%

NC(=NN=Cc1c2ccccc2cc2ccccc12)c1cc[n+]([O-])cc1 [Compound 4PYOam]
MIC [5]: 32 to 64 µg/mL
MIC [6, 34]: 64 to 128 µg/mL
MIC [7]: 64 to 128 µg/mL
MIC [26]: 64 to 128 µg/mL

CC(C)(C)c1ccc(C=NN=C(N)c2cc[n+]([O-])cc2)cc1 [Compound 4PYOfb]
MIC [2]: 32 to 64 µg/mL
MIC [3]: 16 to 32 µg/mL
MIC [4]: 16 to 32 µg/mL
MIC [5]: 8 to 16 µg/mL
MIC [6, 34]: 16 to 32 µg/mL
MIC [7]: 8 to 16 µg/mL

NC(=NN=Cc1cccc2ccccc12)c1cc[n+]([O-])cc1 [Compound 4PYOal]
MIC [1]: 16 to 32 µg/mL
MIC [2]: 16 to 32 µg/mL
MIC [3]: 16 to 32 µg/mL
MIC [4]: 8 to 16 µg/mL
MIC [5]: 16 to 32 µg/mL
MIC [6, 34]: 16 to 32 µg/mL
MIC [7]: 16 to 32 µg/mL

CC(C)(C)c1cc(C=NN=C(N)c2cc[n+]([O-])cc2)cc(C(C)(C)C)c1 [Compound 4PYOff]
MIC [27]: 32 to 64 µg/mL
MIC [1]: 32 to 64 µg/mL
MIC [2]: 16 to 32 µg/mL
MIC [28]: 32 to 64 µg/mL
MIC [29]: 32 to 64 µg/mL
MIC [4]: 32 to 64 µg/mL
MIC [30]: 32 to 64 µg/mL
MIC [31]: 32 to 64 µg/mL
MIC [32]: 32 to 64 µg/mL
MIC [6, 34]: 32 to 64 µg/mL
MIC [7]: 32 to 64 µg/mL
MIC [26]: 32 to 64 µg/mL

CC(C)(C)c1cc(C=NN=C(N)c2cc[n+]([O-])cc2)c(O)c(C(C)(C)C)c1 [Compound 4PYOcq]
MIC [33]: 1 to 2 µg/mL
MIC [27]: 64 to 128 µg/mL
MIC [1]: 8 to 16 µg/mL
MIC [2]: 32 to 64 µg/mL
MIC [28]: 64 to 128 µg/mL
MIC [3]: 32 to 64 µg/mL
MIC [4]: 16 to 32 µg/mL
MIC [30]: 32 to 64 µg/mL
MIC [5]: 1 to 2 µg/mL
MIC [32]: 16 to 32 µg/mL
MIC [6, 34]: 32 to 64 µg/mL
MIC ([6]; Enterococcus faecium NCTC 7171): 32 to 64 µg/mL
MIC [7]: 64 to 128 µg/mL
MIC [26]: 64 to 128 µg/mL

CC(C)(C)c1cccc(C=NN=C(N)c2cc[n+]([O-])cc2)c1O [Compound 4PYOfg]
MIC [27]: 32 to 64 µg/mL
MIC [1]: 8 to 16 µg/mL
MIC [2]: 4 to 8 µg/mL

NC(=NN=Cc1ccccc1Sc1ccc(Cl)cc1)c1cc[n+]([O-])cc1 [Compound 4PYOeh]
MIC [2]: 64 to 128 µg/mL
MIC [5]: 32 to 64 µg/mL
